Source: PubChem BioAssay (NCI)
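Assay format: 96-well plates, 48-hour exposure. Abbreviation: GI50, concentration required for 50% inhibition of growth. TGI marks complete inhibition of growth.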

Experiments:
Assay in all cases: growth of human tumour cells (NCI), 48 h
NCI-H226 lung = tested on: NCI-H226 lung
OVCAR-5 ovarian = tested on: OVCAR-5 ovarian
SK-MEL-2 melanoma = tested on: SK-MEL-2 melanoma
RXF 393 renal = tested on: RXF 393 renal
NCI/ADR-RES ovarian = tested on: NCI/ADR-RES ovarian
ACHN renal = tested on: ACHN renal
COLO 205 colon = tested on: COLO 205 colon
A498 renal = tested on: A498 renal
EKVX NSCLC = tested on: EKVX NSCLC
MDA-MB-231 breast = tested on: MDA-MB-231 breast
HOP-62 NSCLC = tested on: HOP-62 NSCLC
HS 578T breast = tested on: HS 578T breast
LOX IMVI melanoma = tested on: LOX IMVI melanoma
UACC-257 melanoma = tested on: UACC-257 melanoma
UO-31 renal = tested on: UO-31 renal
BT-549 breast = tested on: BT-549 breast
IGROV1 ovarian = tested on: IGROV1 ovarian
CAKI-1 renal = tested on: CAKI-1 renal
SNB-19 CNS = tested on: SNB-19 CNS
OVCAR-8 ovarian = tested on: OVCAR-8 ovarian
PC-3 prostate = tested on: PC-3 prostate
U251 CNS = tested on: U251 CNS
MDA-MB-435 = tested on: MDA-MB-435
HOP-92 NSCLC = tested on: HOP-92 NSCLC
HT29 colon = tested on: HT29 colon
CCRF-CEM leukemia = tested on: CCRF-CEM leukemia
HCC-2998 colon = tested on: HCC-2998 colon
OVCAR-3 ovarian = tested on: OVCAR-3 ovarian
SN12C renal = tested on: SN12C renal
K-562 leukemia = tested on: K-562 leukemia
UACC-62 melanoma = tested on: UACC-62 melanoma
SR leukemia = tested on: SR leukemia
NCI-H522 lung = tested on: NCI-H522 lung
RPMI-8226 leukemia = tested on: RPMI-8226 leukemia
MDA-MB-468 breast = tested on: MDA-MB-468 breast
HCT-15 colon = tested on: HCT-15 colon
MCF7 breast = tested on: MCF7 breast
HL-60(TB) leukemia = tested on: HL-60(TB) leukemia
SF-539 CNS = tested on: SF-539 CNS
M14 melanoma = tested on: M14 melanoma
NCI-H460 lung = tested on: NCI-H460 lung
SNB-75 CNS = tested on: SNB-75 CNS
SK-OV-3 ovarian = tested on: SK-OV-3 ovarian
NCI-H23 lung = tested on: NCI-H23 lung
SF-295 CNS = tested on: SF-295 CNS
SW-620 colon = tested on: SW-620 colon
OVCAR-4 ovarian = tested on: OVCAR-4 ovarian
SK-MEL-5 melanoma = tested on: SK-MEL-5 melanoma
TK-10 renal = tested on: TK-10 renal
T-47D breast = tested on: T-47D breast
A549 NSCLC = tested on: A549 NSCLC
SF-268 CNS = tested on: SF-268 CNS
MALME-3M melanoma = tested on: MALME-3M melanoma
MOLT-4 leukemia = tested on: MOLT-4 leukemia
KM12 colon = tested on: KM12 colon
SK-MEL-28 melanoma = tested on: SK-MEL-28 melanoma
786-0 renal = tested on: 786-0 renal
DU-145 prostate = tested on: DU-145 prostate
HCT-116 colon = tested on: HCT-116 colon

O=C(Nc1ccc(-c2ccc3c(c2)NC(=O)/C3=C\c2ccc[nH]2)cc1)Nc1cccc(Cl)c1
GI50 (NCI-H226 lung): 2.51 µM
TGI (NCI-H226 lung): 9.27 µM
GI50 (OVCAR-5 ovarian): 1.78 µM
TGI (OVCAR-5 ovarian): 3.76 µM
GI50 (SK-MEL-2 melanoma): 2.2 µM
TGI (SK-MEL-2 melanoma): 6.05 µM
GI50 (RXF 393 renal): 2.07 µM
TGI (RXF 393 renal): 4.52 µM
GI50 (NCI/ADR-RES ovarian): 2.14 µM
TGI (NCI/ADR-RES ovarian): 6.01 µM
GI50 (ACHN renal): 1.81 µM
TGI (ACHN renal): 6.57 µM
GI50 (COLO 205 colon): 1.92 µM
TGI (COLO 205 colon): 3.79 µM
GI50 (A498 renal): 3.46 µM
TGI (A498 renal): 11.1 µM
GI50 (EKVX NSCLC): 0.775 µM
TGI (EKVX NSCLC): 10.7 µM
GI50 (MDA-MB-231 breast): 1.64 µM
TGI (MDA-MB-231 breast): 3.86 µM
GI50 (HOP-62 NSCLC): 1.99 µM
TGI (HOP-62 NSCLC): 6.15 µM
GI50 (HS 578T breast): 2.73 µM
TGI (HS 578T breast): 8.74 µM
GI50 (LOX IMVI melanoma): 1.53 µM
TGI (LOX IMVI melanoma): 3.39 µM
GI50 (UACC-257 melanoma): 3.42 µM
TGI (UACC-257 melanoma): 24.5 µM
GI50 (UO-31 renal): 1.77 µM
TGI (UO-31 renal): 12.7 µM
GI50 (BT-549 breast): 2.33 µM
TGI (BT-549 breast): 6.65 µM
GI50 (IGROV1 ovarian): 1.7 µM
TGI (IGROV1 ovarian): 3.78 µM
GI50 (CAKI-1 renal): 1.33 µM
TGI (CAKI-1 renal): 6.39 µM
GI50 (SNB-19 CNS): 4.7 µM
TGI (SNB-19 CNS): 35.8 µM
GI50 (OVCAR-8 ovarian): 2.44 µM
TGI (OVCAR-8 ovarian): 6.53 µM
GI50 (PC-3 prostate): 2.19 µM
TGI (PC-3 prostate): 11.2 µM
GI50 (U251 CNS): 2.98 µM
TGI (U251 CNS): 11.6 µM
GI50 (MDA-MB-435): 1 µM
TGI (MDA-MB-435): 14.1 µM
GI50 (HOP-92 NSCLC): 4.81 µM
TGI (HOP-92 NSCLC): 24.4 µM
GI50 (HT29 colon): 1.86 µM
TGI (HT29 colon): 4.54 µM
GI50 (CCRF-CEM leukemia): 0.846 µM
TGI (CCRF-CEM leukemia): 4.41 µM
GI50 (HCC-2998 colon): 1.78 µM
TGI (HCC-2998 colon): 5.61 µM
GI50 (OVCAR-3 ovarian): 1.69 µM
TGI (OVCAR-3 ovarian): 3.85 µM
GI50 (SN12C renal): 4.44 µM
TGI (SN12C renal): 24.3 µM
GI50 (K-562 leukemia): 1.09 µM
TGI (K-562 leukemia): > 100 µM
GI50 (UACC-62 melanoma): 2.1 µM
TGI (UACC-62 melanoma): 6.03 µM
GI50 (SR leukemia): 1.27 µM
TGI (SR leukemia): 32.5 µM
GI50 (NCI-H522 lung): 1.6 µM
TGI (NCI-H522 lung): 5.1 µM
GI50 (RPMI-8226 leukemia): 2.62 µM
TGI (RPMI-8226 leukemia): 15.3 µM
GI50 (MDA-MB-468 breast): 0.286 µM
TGI (MDA-MB-468 breast): 0.838 µM
GI50 (HCT-15 colon): 1.9 µM
TGI (HCT-15 colon): 10.8 µM
GI50 (MCF7 breast): 0.329 µM
TGI (MCF7 breast): 7.58 µM
GI50 (HL-60(TB) leukemia): 1.64 µM
TGI (HL-60(TB) leukemia): 14.5 µM
GI50 (SF-539 CNS): 1.43 µM
TGI (SF-539 CNS): 3.06 µM
GI50 (M14 melanoma): 3.23 µM
TGI (M14 melanoma): 26.1 µM
GI50 (NCI-H460 lung): 0.766 µM
TGI (NCI-H460 lung): 4 µM
GI50 (SNB-75 CNS): 2.97 µM
TGI (SNB-75 CNS): 7.93 µM
GI50 (SK-OV-3 ovarian): 3.43 µM
TGI (SK-OV-3 ovarian): 14.4 µM
GI50 (NCI-H23 lung): 1.08 µM
TGI (NCI-H23 lung): 3.79 µM
GI50 (SF-295 CNS): 1.9 µM
TGI (SF-295 CNS): 5.02 µM
GI50 (SW-620 colon): 2.29 µM
TGI (SW-620 colon): 11.7 µM
GI50 (OVCAR-4 ovarian): 1.76 µM
TGI (OVCAR-4 ovarian): 9.71 µM
GI50 (SK-MEL-5 melanoma): 1.88 µM
TGI (SK-MEL-5 melanoma): 4.5 µM
GI50 (TK-10 renal): 2.88 µM
TGI (TK-10 renal): 9.85 µM
GI50 (T-47D breast): 0.424 µM
TGI (T-47D breast): 5.36 µM
GI50 (A549 NSCLC): 2.09 µM
TGI (A549 NSCLC): 7.09 µM
GI50 (SF-268 CNS): 4.6 µM
TGI (SF-268 CNS): 60.9 µM
GI50 (MALME-3M melanoma): 2.32 µM
TGI (MALME-3M melanoma): 7.2 µM
GI50 (MOLT-4 leukemia): 0.895 µM
TGI (MOLT-4 leukemia): 11.1 µM
GI50 (KM12 colon): 0.0672 µM
TGI (KM12 colon): 2 µM
GI50 (SK-MEL-28 melanoma): 3.09 µM
TGI (SK-MEL-28 melanoma): 10.2 µM
GI50 (786-0 renal): 2.42 µM
TGI (786-0 renal): 7.45 µM
GI50 (DU-145 prostate): 4.76 µM
TGI (DU-145 prostate): 92.8 µM
GI50 (HCT-116 colon): 1.68 µM
TGI (HCT-116 colon): 11.7 µM
